What follows are compounds tested against GCN2 (Homo sapiens, UniProt Q9P2K8) (assay: GCN2 enzymatic endpoint assay: phosphorylation of GFP-eIF2α measured by TR-FRET (Lanthascreen)). Conditions: tested as described in Example 77; compound and/or hydrochloride, dihydrochloride or trifluoroacetic acid salt; read-out: IC 50 Activity.
Assay type: biochemical
Outline: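 Read-out is the TR-FRET ratio of acceptor signal at 520 nm to terbium donor at 495 nm, rising with antibody binding to phosphorylated GFP-eIF2α. Endpoint format: 2 μM ATP, 80 nM substrate, 90 minutes at room temperature, EDTA stop.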

GCN2, sequence (Q9P2K8 whole entry): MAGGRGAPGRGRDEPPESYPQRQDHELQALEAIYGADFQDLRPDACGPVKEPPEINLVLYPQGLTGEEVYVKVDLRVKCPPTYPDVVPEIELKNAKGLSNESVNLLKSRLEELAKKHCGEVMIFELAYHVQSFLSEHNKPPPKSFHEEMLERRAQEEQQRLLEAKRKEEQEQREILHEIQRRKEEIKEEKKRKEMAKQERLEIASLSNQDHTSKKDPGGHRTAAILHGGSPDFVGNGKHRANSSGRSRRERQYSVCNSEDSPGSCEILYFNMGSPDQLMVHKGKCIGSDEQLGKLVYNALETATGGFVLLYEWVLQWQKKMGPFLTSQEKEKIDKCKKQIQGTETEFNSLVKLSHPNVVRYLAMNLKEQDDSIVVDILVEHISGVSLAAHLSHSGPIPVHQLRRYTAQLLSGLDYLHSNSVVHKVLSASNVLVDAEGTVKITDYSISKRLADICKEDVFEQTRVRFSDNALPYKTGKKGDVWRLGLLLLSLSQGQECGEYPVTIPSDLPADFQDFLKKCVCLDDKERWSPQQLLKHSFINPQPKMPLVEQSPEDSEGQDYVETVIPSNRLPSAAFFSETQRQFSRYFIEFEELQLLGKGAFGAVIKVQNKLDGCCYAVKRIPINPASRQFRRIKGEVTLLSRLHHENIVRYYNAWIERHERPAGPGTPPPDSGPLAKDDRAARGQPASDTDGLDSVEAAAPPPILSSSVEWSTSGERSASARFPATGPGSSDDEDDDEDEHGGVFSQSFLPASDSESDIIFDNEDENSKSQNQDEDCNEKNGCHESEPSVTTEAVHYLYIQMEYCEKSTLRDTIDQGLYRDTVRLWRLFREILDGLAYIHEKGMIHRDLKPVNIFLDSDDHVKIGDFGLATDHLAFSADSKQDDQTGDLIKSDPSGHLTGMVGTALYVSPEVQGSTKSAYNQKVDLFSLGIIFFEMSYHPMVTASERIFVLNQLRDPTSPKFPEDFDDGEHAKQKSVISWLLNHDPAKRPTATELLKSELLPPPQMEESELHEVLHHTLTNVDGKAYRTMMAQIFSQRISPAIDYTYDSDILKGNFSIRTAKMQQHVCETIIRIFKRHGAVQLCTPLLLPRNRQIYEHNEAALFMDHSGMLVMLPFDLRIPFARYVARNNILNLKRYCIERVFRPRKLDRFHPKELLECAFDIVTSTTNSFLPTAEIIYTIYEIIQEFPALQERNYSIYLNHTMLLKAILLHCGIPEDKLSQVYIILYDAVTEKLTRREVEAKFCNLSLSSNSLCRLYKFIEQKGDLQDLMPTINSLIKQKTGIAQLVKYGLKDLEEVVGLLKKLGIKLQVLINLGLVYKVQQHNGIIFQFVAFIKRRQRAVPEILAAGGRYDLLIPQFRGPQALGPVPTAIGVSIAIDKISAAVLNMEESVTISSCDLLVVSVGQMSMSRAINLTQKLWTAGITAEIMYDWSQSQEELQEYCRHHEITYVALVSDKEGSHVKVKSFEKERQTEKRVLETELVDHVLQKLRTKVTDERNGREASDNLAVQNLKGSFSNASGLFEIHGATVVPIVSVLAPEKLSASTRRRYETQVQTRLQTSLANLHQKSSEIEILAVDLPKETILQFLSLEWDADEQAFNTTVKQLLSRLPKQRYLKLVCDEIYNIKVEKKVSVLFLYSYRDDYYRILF

Compound	IC50 [µM]
Cc1nnc(-c2ccc(-n3nc(Br)c4cnc(N[C@@H]5CC[C@@](C)(N(C)C)C5)nc43)cc2CCC#N)s1 [3-[5-[3-bromo-6-[[(1R,3R)-3-(dimethylamino)-3-methyl-cyclopentyl]amino]pyrazolo[3,4-d]pyrimidin-1-yl]-2-(5-methyl-1,3,4-thiadiazol-2-yl)phenyl]propanenitrile]	0.025 to 0.2
Cc1nnc(-c2ccc(-n3nc(Br)c4cnc(N[C@@H]5CC[C@@](C)(CO)C5)nc43)cc2CCC#N)s1 [3-[5-[3-bromo-6-[[(1R,3R)-3-(hydroxy-methyl)-3-methyl-cyclopentyl]amino]pyrazolo[3,4-d]pyrimidin-1-yl]-2-(5-methyl-1,3,4-thiadiazol-2-yl)phenyl] propanenitrile]	0.025 to 0.2
CNC(=O)[C@]1(C)CC[C@@H](Nc2ncc3c(Br)nn(-c4ccc(-c5nnc(C)s5)c(CCC(=O)O)c4)c3n2)C1 [3-[5-[3-bromo-6-[[(1R,3R)-3-methyl-3-(methylcarbamoyl)cyclopentyl]amino]pyrazolo[3,4-d]pyrimidin-1-yl]-2-(5-methyl-1,3,4-thiadiazol-2-yl)phenyl] propanoic acid]	0.025 to 0.2
Cc1nnc(-c2ccc(-n3nc(Br)c4cnc(N[C@@H]5CC[C@](C)(O)C5)nc43)cc2CCC#N)s1 [3-[5-[3-bromo-6-[[(1R,3S)-3-hydroxy-3-methyl-cyclopentyl]amino]pyrazolo [3,4-d]pyrimidin-1-yl]-2-(5-methyl-1,3,4-thiadiazol-2-yl)phenyl]propanenitrile]	0.025 to 0.2
Cc1nnc(-c2ccc(-n3nc(Br)c4cnc(N[C@@H]5CCC6(CC(=O)N(C)C6=O)C5)nc43)cc2CCC#N)s1 (stereo partly drawn) [3-[5-[3-bromo-6-[[(8R)-2-methyl-1,3-dioxo-2-azaspiro[4.4]nonan-8-yl]amino]pyrazolo[3,4-d]pyrimidin-1-yl]-2-(5-methyl-1,3,4-thiadiazol-2-yl)phenyl]propanenitrile; 2,2,2-trifluoroacetic acid]	0.025 to 0.2
NCCc1cc(-n2nc(Br)c3cnc(NC4CC(O)C4)nc32)cc2cccnc12 (stereo not drawn) [3-[[1-[8-(2-aminoethyl)-6-quinolyl]-3-bromo-pyrazolo[3,4-d]pyrimidin-6-yl]amino] cyclobutanol]	0.025 to 0.2
OC1CC(Nc2ncc3c(Br)nn(-c4cc(F)c5ncccc5c4)c3n2)C1 (stereo not drawn) [3-[[3-bromo-1-(8-fluoro-6-quinolyl)pyrazolo[3,4-d]pyrimidin-6-yl]amino] cyclobutanol]	0.025 to 0.2
Cc1nnc(-c2ccc(-n3nc(Br)c4cnc(NC5CC(O)C5)nc43)cc2)s1 (stereo not drawn) [3-[[3-bromo-1-[4-(5-methyl-1,3,4-thiadiazol-2-yl)phenyl]pyrazolo[3,4-d]pyrimidin-6-yl]amino]cyclobutanol]	0.025 to 0.2
COC1CC(Nc2ncc3c(Br)nn(-c4cc(F)c5ncccc5c4)c3n2)C1 (stereo not drawn) [3-bromo-1-(8-fluoro-6-quinolyl)-N-(3-methoxycyclobutyl)pyrazolo[3,4-d]pyrimidin-6-amine]	0.025 to 0.2
Fc1cc(-n2nc(Br)c3cnc(NC4COC4)nc32)cc2cccnc12 [3-bromo-1-(8-fluoro-6-quinolyl)-N-(oxetan-3-yl)pyrazolo[3,4-d]pyrimidin-6-amine]	0.025 to 0.2
CO[C@@H]1CC[C@@H](Nc2ncc3c(Br)nn(-c4cc(F)c5ncccc5c4)c3n2)C1 [3-bromo-1-(8-fluoro-6-quinolyl)-N-[(1R,3R)-3-methoxycyclopentyl]pyrazolo[3,4-d] pyrimidin-6-amine]	0.025 to 0.2
Fc1cc(-n2nc(Br)c3cnc(N[C@H]4CCOC4)nc32)cc2cccnc12 [3-bromo-1-(8-fluoro-6-quinolyl)-N-[(3S)-tetrahydrofuran-3-yl]pyrazolo [3,4-d]pyrimidin-6-amine]	0.025 to 0.2
Fc1cc(-n2nc(Br)c3cnc(NC4CCOC4)nc32)cc2cccnc12 (stereo not drawn) [3-bromo-1-(8-fluoro-6-quinolyl)-N-tetrahydrofuran-3-yl-pyrazolo[3,4-d] pyrimidin-6-amine]	0.025 to 0.2
Cc1nnc(-c2ccc(-n3nc(Br)c4cnc(N[C@@H]5CCOC5)nc43)cc2)s1 [3-bromo-1-[4-(5-methyl-1,3,4-thiadiazol-2-yl)phenyl]-N-[(3R)-tetrahydrofuran-3-yl] pyrazolo[3,4-d]pyrimidin-6-amine]	0.025 to 0.2
Cc1nnc(-c2ccc(-n3nc(Br)c4cnc(NC5CCOC5)nc43)cc2)s1 (stereo not drawn) [3-bromo-1-[4-(5-methyl-1,3,4-thiadiazol-2-yl)phenyl]-N-tetrahydrofuran-3-yl-pyrazolo [3,4-d]pyrimidin-6-amine]	0.025 to 0.2
Cc1nnc(-c2ccc(-n3nc(Br)c4cnc(NC5CC(P(C)(C)=O)C5)nc43)cc2CCS(C)(=O)=O)s1 (stereo not drawn) [3-bromo-N-(3-dimethylphosphorylcyclo-butyl)-1-[3-(2-methylsulfonylethyl)-4-(5-methyl-1,3,4-thiadiazol-2-yl)phenyl] pyrazolo[3,4-d]pyrimidin-6-amine]	0.025 to 0.2
Cc1nnc(-c2ccc(-n3nc(Br)c4cnc(NC5CC(P(C)(C)=O)C5)nc43)cc2)s1 (stereo not drawn) [3-bromo-N-(3-dimethylphosphorylcyclo-butyl)-1-[4-(5-methyl-1,3,4-thiadiazol-2-yl)phenyl]pyrazolo[3,4-d]pyrimidin-6-amine]	0.025 to 0.2

Continued, values first:

IC50 [µM]	Compound
0.025 to 0.2	CP(C)(=O)[C@@H]1CC[C@@H](Nc2ncc3c(Br)nn(-c4cc(C#N)cc(OCC5(F)CNC5)c4)c3n2)C1 [3-[3-bromo-6-[[(1R,3R)-3-dimethylphosphorylcyclopentyl]amino]pyrazolo[3,4-d]pyrimidin-1-yl]-5-[(3-fluoroazetidin-3-yl)methoxy]benzonitrile]
0.025 to 0.2	CNC(=O)[C@]1(C)CC[C@@H](Nc2ncc3c(Br)nn(-c4cc(Cl)cc(C(=O)N(C)C)c4)c3n2)C1 [3-[3-bromo-6-[[(1R,3R)-3-methyl-3-(methylcarbamoyl)cyclopentyl]amino]pyrazolo[3,4-d]pyrimidin-1-yl]-5-chloro-N,N-dimethyl-benzamide]
0.025 to 0.2	CNC(=O)c1cc(Cl)cc(-n2nc(Br)c3cnc(N[C@@H]4CC[C@@](C)(C(=O)NC)C4)nc32)c1 [3-[3-bromo-6-[[(1R,3R)-3-methyl-3-(methylcarbamoyl)cyclopentyl]amino]pyrazolo[3,4-d]pyrimidin-1-yl]-5-chloro-N-methyl-benzamide]
0.025 to 0.2	CNC(=O)[C@]1(C)CC[C@@H](Nc2ncc3c(Br)nn(-c4cc(F)cc(C(N)=O)c4)c3n2)C1 [3-[3-bromo-6-[[(1R,3R)-3-methyl-3-(methylcarbamoyl)cyclopentyl]amino]pyrazolo[3,4-d]pyrimidin-1-yl]-5-fluoro-benzamide]
0.025 to 0.2	Cc1nnc(-c2ccc(-n3nc(Br)c4cnc(NC5CC(P(C)(C)=O)C5)nc43)cc2CCC#N)s1 (stereo not drawn) [3-[5-[3-bromo-6-[(3-dimethylphosphoryl-cyclobutyl)amino]pyrazolo[3,4-d]pyrimidin-1-yl]-2-(5-methyl-1,3,4-thiadiazol-2-yl)phenyl]propanenitrile]
< 0.025	Cc1nnc(-c2ccc(-n3nc(Br)c4cnc(N[C@@H]5CC[C@](C(=O)N6CCNCC6)(C(C)C)C5)nc43)cc2CCC#N)s1 [3-[5-[3-bromo-6-[[(1R,3R)-3-isopropyl-3-(piperazine-1-carbonyl)cyclopentyl]amino]pyrazolo[3,4-d]pyrimidin-1-yl]-2-(5-methyl-1,3,4-thiadiazol-2-yl)phenyl] propanenitrile]
< 0.025	CNC(=O)[C@]1(C)CC[C@@H](Nc2ncc3c(Br)nn(-c4cc(CCC(=O)O)c5ncccc5c4)c3n2)C1 [3-[6-[3-bromo-6-[[(1R,3R)-3-methyl-3-(methylcarbamoyl)cyclopentyl]amino]pyrazolo[3,4-d]pyrimidin-1-yl]-8-quinolyl]propanoic acid]

— patent US11046699B2, “Pyrazolo-pyrimidin-amino-cycloalkyl compounds and their therapeutic uses” (RAPT THERAPEUTICS, INC., priority 2018, dated 2021)
